Earlier results as cited in patent US12247090B2, “Enzyme-mediated free radical initiating systems for the production of hydrogels and controlled radical polymerization processes” (Duke University, priority 2021, dated 2025).

Tested on: rat
Conditions: in vivo, po

Q: Which LD50 does the source give for `CC(=O)CC(C)=O` [ACAC, acetylacetone] here?
A: 55 mg/kg
